Earlier results on 1 compound are cited in patent US6485736B1, “Variable release microcapsules” (priority 2000, dated 2002).

Molecules are shown by their SMILES.

For this data set the following is noted: water at 25° C.

Turning to `II`, the solubility is recorded as 0.335 g in 1 dm^3 of water.
